# Data published in patent US11541022B2, “Methods and compositions for the treatment of neurological diseases and syndromes of aging” (priority 2018, dated 2023).
# Assays:
# [1] = tested on: epigenetic age (methylation patterns of gene markers from buccal cells); assay: Epigenetic age tests in AR (Age Regression) trials of the stem cell regime; format: in vivo, human
# Source text: Test subject's epigenetic age results are summarized below in the table of AR (Age Regression) trials: The second column of Table 1 reports the difference between epigenetic and chronological age; the third column reports the weeks of treatment, wherein there was at least one fusion cycle per week and generally two […] cycles initially, decreasing to the end of this period to one treatment every week or two; the fourth column reports the total elapsed time from baseline; the fifth column reports the regimes used; and the sixth column reports the nutritional cocktails. Several companies are presently offering epigenetic tests that purport to give epigenetic age that generally closely correlates with chronological age. The subject had taken a test offered by Osiris Green two months prior beginning treatment. […] This was in spite of their prior use of C60 for several years outside of the regime. […] This was far outside the expected range. […] It appears that using a demethylase promoter during stem cell stimulation produces a far more rapid decline in epigenetic age, as removing aberrant methylation is easiest during cell division. The epigenetic testing labs used—Osirus Green, TrueMe, EpiAging and Epimorphy—all used different sets of genes, yet results were within a few years for samples taken at the same time. […] It was initially hypothesized that any negative impact would be minimal if used only with mitochondrial switches, but the telomeres of rapidly dividing TACs were likely also lengthened, and this blocked TAC senescence and replacement. Since TACs divide frequently, they also experience rapid epigenetic aging, thus somatic cells derived from TACs with telomeres extended by an agonist reach higher epigenetic age that would ordinarily be possible.
# [2] = Trial of L-Dopa with C60 and mitochondrial fusion; format: in vivo, human; conditions: one subject
# Procedure: In some embodiments, the amino acid L-Dopa is administered with a mitochondrial fusion promoter to stimulate the proliferation of SCs. In some embodiments it is used with C60 and/or with a demethylase promoter. In some embodiments it is used with glutamine. […] Treatment with L-Dopa may be combined with 5-HTP and/or SRIs for a full spectrum effect.
# [3] = cited from earlier work; for half-life: stated in words
# [4] = mice, intraperitoneal injection; cited from earlier work
compound,measurement,setting,value
"CC(C)(O)[C@@H]1CC[C@](C)([C@H]2[C@@H](O)C[C@@]3(C)[C@@H]4C[C@H](O)[C@H]5C(C)(C)[C@@H](O)CC[C@@]56C[C@@]46CC[C@]23C)O1 [cycloasragenol, cycloastragenol]",effect on epigenetic age,[1]; telomere agonist every fourth treatment,did not show the same negative effects
same,effect on epigenetic age,[1]; telomere agonist with every C60/mitochondrial switches treatment,rapidly increase epigenetic age
"N[C@@H](Cc1ccc(O)c(O)c1)C(=O)O [L-Dopa, Levodopa]",tremors,[2],eliminated tremors
CCCCCCCCCCCCCCCCCC(=O)O [stearic acid],half-life,[3],ten to twelve hours
Oc1ccc(C=Cc2cc(O)cc(O)c2)cc1 [resveratrol],epigenetic age below chronological age,"[1]; 300 mg of resveratrol one hour before C60, one treatment per week for 8 weeks",14.6 years
"O=C1c2c(O)cc(O)cc2O[C@H](c2cc(O)c(O)c(O)c2)[C@H]1O [dihydromyricetin, Dihydromyricetin]",time to elimination from the body,[3]; Liu et al. 2019,about 12 hours
C[S+]([O-])CCCCN=C=S (stereo not shown) [sulforaphane],time to peak in the bloodstream,[3]; in vivo,≥ 15 min
same,half-life,[3],about an hour
same,duration of activity,[4],approximately sixty minutes
same,time to maximum activity,[4],15 min
